Assay results taken from patent publication US20220296674A1, “CELL PENETRATING PEPTIDES FOR INTRACELLULAR DELIVERY OF MOLECULES” (INSERM (INSTITUT NATIONAL DE LA SANTÉ ET DE LA RECHERCHE …, priority 2019, published 2022).
Where no end group is shown, it is not given here.

How the values were obtained:
[1] = system: non-malignant (CD3+CD4+TCR-Vβ−) CD4+ T-cells; format: cell-based, human
Protocol: (§1) FIG. 7 RT33 and RT33DR specifically induce primary Sézary cells death. Sézary patients' PBMC were incubated with increasing concentrations of the indicated peptides for 4 h at 37° C. Cells were then analyzed by flow cytometry following labeling with anti-TCRVβ-FITC, -CD4-PE, -CD3-PE-Cy7 mAbs and 7-AAD. Data are shown as the means±s.e.m. of the percentage of 7-AAD+apoptotic cells within the following populations: malignant (CD3^+CD4^+TCR-V β^+) and non-malignant (CD3^+CD4^+TCR-Vβ^−) CD4+T-cells and non T-cells (CD3^−), derived from three different patients.
(§2) PBMC exposed or not to RT33 or RT33DR were processed for flow cytometry to assess cell death. Cells were labelled with a mix of anti-TCR-Vβ-FITC, -CD3-PE and -CD4-PECy7 mAbs (Beckman Coulter). Detection of apoptotic cells was performed using 7AAD (BD Biosciences). Cells were analyzed on a CytoFlex cytometer (Beckman Coulter) and data treated with FlowJo software.

[2] = system: non T-cells (CD3−); format: cell-based, human
Protocol: as §1, §2

[3] = system: HUT78 Sézary cell line xenograft tumors; assay: Xenograft tumor model of Sézary syndrome; format: in vivo; settings: systemic administration, single agent
Protocol: FIG. 8 RT33 and RT33DR inhibit tumor growth in vivo in a mouse model for the Sézary syndrome. (A) Mice were engrafted subcutaneously with HUT78 Sézary cell line. Animals with preexisting tumors were treated daily with i.p. injections of RT33 or RT33DRM in normal saline (5 mg/kg) or normal saline as control. Tumors were calipered throughout the study and data were plotted as means±s.e.m. (n=7 mice per group). p<0.005 relative to control. Subsequently, tumors were excised, stripped of non-tumor tissue and tumors volumes were calculated. (B) Representative pictures of H&E staining of tumors treated with RT33, RT33DRM, or normal saline. The scale bar represents 500 μm.
Animal experiments were approved by The University Board Ethics Committee for Experimental Animal Studies (#2303.01). Xenograft tumors were obtained by subcutaneous injection of 10^6 HUT78 cells in the right flank of 8-week-old female NOD-SCID-gamma (NSG) mice, bred and housed under pathogen-free conditions at our animal facility (IUH, Saint Louis Hospital, Paris, France). Treatment started after randomization when tumors were visible and consisted of daily intraperitoneal (i.p.) injection of normal saline or RT33 or RT33DR in normal saline (n=5 per group). Tumor volume was measured every other day and calculated as: long axis X short axis^2 ×0.5. […]

[4] = system: HaCat; assay: Cell viability (MTT) after RT33 / RT33DR; format: cell-based; settings: increasing concentrations, 20 h
Protocol: (§3) FIG. 6 RT33 and RT33DR induces cancer cells, but not normal cells, death. (A) Amino-acid sequence of RT33 and RT3DR. hAP10 and hAP10DR sequences are in bold. (B) The indicated cells were exposed to increasing concentrations of RT33 or RT3DR for 20 h. Viability was then assessed by an MTT assay. Data are means±s.e.m. (n=3). (C) HUT78 cells were exposed to increasing concentrations of RT33 or RT3DR for 20 h in the presence and absence of 50 μM zVAD-fmk or 50 μM Necrostatin-1 (Nec-1). Viability was then assessed by an MTT assay. Data are means±s.e.m. (n=3). (D) HUT78 cells were exposed to 20 μM of RT33 or RT33DR for 3 h. Necrotic cell death was monitored by lactate dehydrogenase (LDH) as in FIG. 4 (B). Data are means±s.e.m. (n=3). (E) Ultrastructural analysis of HUT78 cells treated with 15 μM of hAP10 or hAP10DR for 1 h. (F) Structural prediction of RT33 and RT33DR. The segments corresponding to the hAP10 and hAP10DR moieties are in light grey. (G) Cancerous C8161 cells or non-cancerous MRC-5 cells were exposed to FITC-labelled RT33 or RT33DR for 1 h. Cels were then examined by fluorescence microscopy.
(§4) Cells survival was assessed with the CellTiter 96® Aqueous One Solution Cell Proliferation Assay kit (Promega, Madison, Wis.). Necrotic plasma membrane permeabilization was assessed by lactate dehydrogenase (LDH) leakage in the culture medium with the CytoTox 96® Non-Radioactive Cytotoxicity Assay kit (Promega, Madison, Wis.).

[5] = system: MRC-5; assay: Cell viability (MTT) after RT33 / RT33DR; format: cell-based; settings: increasing concentrations, 20 h
Protocol: as §3, §4

[6] = system: HUT78; assay: Cell viability (MTT) after RT33 / RT33DR; format: cell-based; settings: 50 μM zVAD-fmk, 20 h
Protocol: as §3, §4

[7] = system: various cell lines; format: cell-based; settings: data not shown
Protocol: (§5) FIG. 4 Lack of toxicity and immunogenicity of hAP10 and hAP10DR. (A) The indicated cells were exposed to increasing concentrations of hAP10 or hAP10DR for 20 h. Viability was then assessed by an MTT assay. Data are means±s.e.m. (n=3). (B) Necrotic cell death was monitored by lactate dehydrogenase (LDH) release from cells into the culture medium. The obtained values were normalized to those of the maximum LDH released (completely lysed) control. Data are means±s.e.m. (n=3). […] Mice red blood cells were incubated with 30 μM of hAP10 or hAP10DR. Released hemoglobin was detected by densitometry at 540 nm. Hemoglobin release by cells treated with 1% Triton X-100 was used as 100% lysis control. (D) Levels of IL-6 secretion from RAW 264.7 cells exposed to 10 μM of hAP10 or hAP10DR or LPS (1 μg/ml) for 24 h. Data are means±s.e.m. (n=3).
as §4

[8] = system: various cell lines; assay: Lactate dehydrogenase (LDH) release assay of the shuttle peptides; format: cell-based
Protocol: as §5, §4

[9] = system: Mice red blood cells; assay: Hemolysis assay; format: cell-based; settings: 30 μM, 37° C., 1 h; 1% Triton X-100 = 100% lysis
Protocol: as §5
Mice blood was centrifuged at 2000 rpm for 10 min. Red blood cell pellets were washed five times with PBS and resuspended in normal saline. For each assay, 1×10^7 red blood cells were incubated with or without peptide (30 μM) in normal saline at 37° C. for 1 h. The samples were then centrifuged and the absorbance of the supernatant was measured at 540 nm. To determine the percentage of lysis, absorbance readings were normalized to lysis with 1% Triton X-100.

[10] = system: RAW 264.7 murine macrophages; assay: Immunogenicity assay: IL-6 secretion (ELISA); format: cell-based; settings: 10 μM peptide or LPS 1 μg/ml, 24 h
Protocol: as §5
RAW 264.7 murine macrophages were seeded (1×10^4 cells/cm^2) in a 24-well plate and allowed to grow for 24 h. Then, cells were left untreated or exposed to the hAP10 or hAP10DR peptides (10 μM) or to LPS (E. Coli O111:b4, 1 μg/ml) as a positive control for 24 h. Levels of IL-6 in the supernatants were analyzed using an Mouse IL-6 Quantikine ELISA Kit (R&D system).

[11] = system: U2OS cells; assay: Live cell fluorescence microscopy of FITC-labelled peptides; format: cell-based; settings: 5 μM FITC-labelled peptide, 1 h
Protocol: FIG. 2 Cellular uptake of hAP10 and hAP10DR. (A) HUT78 cells were incubated with 5 μM of FITC-labelled hAP10 and hAP10DR or penetratin and TAT as controls for 1 h in complete medium. Cells were then washed with PBS, incubated in trypsin-EDTA solution (0.01% trypsin) at 37° C. for 10 min, resuspended in PBS and subjected to flow cytometry (right). Left: Bar diagram representing the uptake of the FITC-labelled peptides as mean cellular fluorescence from the flow cytometry analysis of live cells positive for FITC. Data are means±s.e.m. (n=3). (B) Fluorescence quantification of FITC-labelled hAP10 and hAP10DR uptaken in human B lymphocytes. Cells were incubated with 5 μM of FITC-labelled hAP10 and hAP10DR or penetratin and TAT as controls for 1 h in complete medium, washed with PBS and the fluorescence of the cell lysis measured as described in Material and Methods. Data are means±s.e.m. (n=3). (C) Intracellular distribution of FITC-labelled hAP10 and hAP10DR in U2OS cells. U2OS cells grown on coverslips were incubated with 5 μM of FITC-labelled hAP10 and hAP10DR or penetratin and TAT as controls for 1 h in complete medium, washed trice with PBS and live cells were imaged using fluorescence microscopy. […] Following incubation, the cells were washed three times in PBS and imaged using a Zeiss Axiovert 200 M inverted fluorescence microscope.

## RSRSRDRRRKLQYFARGLQVYIRQLRLALQGKT [RT33]
[1]
  cell viability / cell death of non-tumoral CD4+ T-cells: neither peptide decreased cell viability
[2]
  cell viability / cell death of non-T cell population: neither peptide decreased cell viability
[3]
  tolerability in vivo: well tolerated in vivo
[4]
  cell viability of normal cells: sparing the normal cells tested
[5]
  cell viability of normal cells: sparing the normal cells tested
[6]
  cytotoxicity in presence of pan-caspase inhibitor zVAD-fmk: did not block

## AAC-11 specific portion: the AAC-11 specific portion (residues 377-399) alone, without shuttle (LQYFARGLQVYIRQLRLALQGKT; UniProt Q9BZZ5 377-399, looked up, fragment)
[7]
  cell viability, AAC-11 portion without shuttle: nor the AAC-11 specific portion alone (not shown) decreased cell viability

## RSRSRDRRRK [hAP10, RSRSRDRRRK]
[1]
  cell viability / cell death of non-tumoral CD4+ T-cells: did not induce cell death
[2]
  cell viability / cell death of non-T cell population: did not induce cell death
[8]
  LDH activity release in the culture medium (membrane disturbance): did not induce membrane disturbance
[9]
  hemolytic activity: neither hAP10 nor hAP10DR exhibited hemolytic activity
[10]
  secreted IL-6: no significant IL-6 release was detected

## lipopolysaccharide [LPS, reference compound]
[10]
  secreted IL-6: elicited a potent cytokine response

## TAT
[11]
  cellular distribution of fluorescence: both a diffuse and punctuate fluorescence distribution

## RSRSRRRRRK [hAP10DR, RSRSRRRRRK]
[1]
  cell viability / cell death of non-tumoral CD4+ T-cells: did not induce cell death
[2]
  cell viability / cell death of non-T cell population: did not induce cell death
[8]
  LDH activity release in the culture medium (membrane disturbance): did not induce membrane disturbance
[9]
  hemolytic activity: neither hAP10 nor hAP10DR exhibited hemolytic activity
[10]
  secreted IL-6: no significant IL-6 release was detected

## RSRSRRRRRKLQYFARGLQVYIRQLRLALQGKT [RT33DR]
[1]
  cell viability / cell death of non-tumoral CD4+ T-cells: neither peptide decreased cell viability
[2]
  cell viability / cell death of non-T cell population: neither peptide decreased cell viability
[3]
  tolerability in vivo: well tolerated in vivo
[4]
  cell viability of normal cells: sparing the normal cells tested
[5]
  cell viability of normal cells: sparing the normal cells tested
[6]
  cytotoxicity in presence of pan-caspase inhibitor zVAD-fmk: did not block
